Measurements: US6818445B2 (Synaptic Pharmaceutical Corporation, priority 1994, dated 2004)

Experiments:
[1] = molecular target: T1, human α1d receptor (Homo sapiens, UniProt P25100); assay: Binding to cloned human α1d adrenergic receptor
T1 sequence (P25100 1-572): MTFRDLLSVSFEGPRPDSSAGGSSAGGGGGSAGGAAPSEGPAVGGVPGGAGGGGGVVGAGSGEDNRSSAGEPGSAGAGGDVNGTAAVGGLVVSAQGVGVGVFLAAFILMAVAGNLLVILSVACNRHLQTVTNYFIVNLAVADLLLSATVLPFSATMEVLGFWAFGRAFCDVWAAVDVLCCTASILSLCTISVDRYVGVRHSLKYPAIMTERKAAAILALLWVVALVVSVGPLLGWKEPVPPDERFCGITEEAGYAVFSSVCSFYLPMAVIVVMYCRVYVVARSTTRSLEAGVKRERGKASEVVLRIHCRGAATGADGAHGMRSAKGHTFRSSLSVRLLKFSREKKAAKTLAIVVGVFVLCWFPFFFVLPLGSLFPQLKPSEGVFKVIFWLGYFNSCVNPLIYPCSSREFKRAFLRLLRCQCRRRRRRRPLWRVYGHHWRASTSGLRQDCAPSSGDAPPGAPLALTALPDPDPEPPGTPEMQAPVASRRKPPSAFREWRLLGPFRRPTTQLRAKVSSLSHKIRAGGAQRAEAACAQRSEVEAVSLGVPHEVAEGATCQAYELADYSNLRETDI

[2] = molecular target: T2, human α1a receptor (Homo sapiens, UniProt P35348); assay: Binding to cloned human α1a adrenergic receptor
T2 sequence (P35348 1-466): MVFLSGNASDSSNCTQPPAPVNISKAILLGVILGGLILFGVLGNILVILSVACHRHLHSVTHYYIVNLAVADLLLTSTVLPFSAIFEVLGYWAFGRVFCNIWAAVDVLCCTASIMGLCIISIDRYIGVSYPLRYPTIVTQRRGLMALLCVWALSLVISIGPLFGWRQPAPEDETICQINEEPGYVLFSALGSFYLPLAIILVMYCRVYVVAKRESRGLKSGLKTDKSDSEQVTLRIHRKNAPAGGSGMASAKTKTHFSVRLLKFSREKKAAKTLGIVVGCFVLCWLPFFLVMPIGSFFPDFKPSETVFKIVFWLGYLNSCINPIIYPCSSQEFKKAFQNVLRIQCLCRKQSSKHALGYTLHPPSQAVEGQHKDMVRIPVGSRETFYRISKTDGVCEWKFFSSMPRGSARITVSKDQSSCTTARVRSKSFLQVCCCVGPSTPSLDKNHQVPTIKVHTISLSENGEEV

[3] = molecular target: T3, human α1b receptor (Homo sapiens, UniProt P35368); assay: Binding to cloned human α1b adrenergic receptor
T3 sequence (P35368 1-520): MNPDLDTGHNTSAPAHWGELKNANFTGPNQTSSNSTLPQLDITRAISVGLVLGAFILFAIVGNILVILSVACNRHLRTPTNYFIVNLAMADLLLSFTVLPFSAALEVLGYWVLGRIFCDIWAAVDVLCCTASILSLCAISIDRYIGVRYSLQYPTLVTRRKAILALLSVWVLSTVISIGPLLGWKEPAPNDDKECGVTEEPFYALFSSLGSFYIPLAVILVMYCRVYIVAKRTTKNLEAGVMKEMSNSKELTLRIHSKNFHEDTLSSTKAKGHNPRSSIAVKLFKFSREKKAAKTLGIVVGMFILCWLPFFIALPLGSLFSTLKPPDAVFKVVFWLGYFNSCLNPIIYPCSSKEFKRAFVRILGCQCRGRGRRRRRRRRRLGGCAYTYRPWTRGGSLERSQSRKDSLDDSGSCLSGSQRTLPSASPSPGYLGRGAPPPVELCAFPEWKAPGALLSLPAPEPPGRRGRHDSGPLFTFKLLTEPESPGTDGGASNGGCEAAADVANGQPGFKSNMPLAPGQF

[4] = tested on: food intake of 24 h food-deprived rats; assay: Food intake in food-deprived rats; format: in vivo, rat; settings: 30 mg/kg i.p. after 24 h food deprivation, percentage of intake compared to control rats
Description: At the end of the equilibration period, food is removed from the animals for 24 hours starting at 8:00 a.m. At the end of the fasting period compound or vehicle may be administered to the animals orally or by injection intraperitoneally or intravenously. After 10-60 min. food is returned to the animals and their food intake is monitored at various time periods during the following 24 hour period. The food intake of animals treated with test compound may be calculated as a percentage of the food intake of control animals (i.e., animals treated with vehicle). Alternatively, food intake for each group of animals subjected to a particular experimental condition may be expressed as the mean±S.E.M.
Therefore, the Y5 antagonists of Table 14 were administered by intraperitoneal injection at a dose of 30 mg/kg to conscious rats following a 24 h food deprivation. […] Measurements were performed two hours after administration of the test compound.

[5] = molecular target: human Y4 receptor (Homo sapiens, UniProt P50391); format: binding; settings: read-out: Binding Affinity (Ki (nM) vs. ^125I-PYY) Human Receptor Y4; Table 14
Chain of human Y4 receptor (P50391 whole entry): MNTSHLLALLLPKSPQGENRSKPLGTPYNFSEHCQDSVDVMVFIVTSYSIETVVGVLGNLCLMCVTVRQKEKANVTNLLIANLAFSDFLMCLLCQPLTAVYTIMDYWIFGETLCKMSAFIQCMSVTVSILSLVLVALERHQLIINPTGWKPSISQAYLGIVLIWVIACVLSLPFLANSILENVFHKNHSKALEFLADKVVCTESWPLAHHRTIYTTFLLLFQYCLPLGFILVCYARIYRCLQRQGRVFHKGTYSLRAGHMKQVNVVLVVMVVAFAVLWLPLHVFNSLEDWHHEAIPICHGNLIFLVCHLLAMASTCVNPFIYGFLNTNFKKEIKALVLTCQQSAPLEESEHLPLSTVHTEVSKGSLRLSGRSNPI

[6] = molecular target: T4, human Y1 receptor (Homo sapiens, UniProt P25929); settings: read-out: Binding Affinity (Ki (nM) vs. ^125I-PYY) Human Receptor Y1; Table 14
T4 sequence (P25929 1-384): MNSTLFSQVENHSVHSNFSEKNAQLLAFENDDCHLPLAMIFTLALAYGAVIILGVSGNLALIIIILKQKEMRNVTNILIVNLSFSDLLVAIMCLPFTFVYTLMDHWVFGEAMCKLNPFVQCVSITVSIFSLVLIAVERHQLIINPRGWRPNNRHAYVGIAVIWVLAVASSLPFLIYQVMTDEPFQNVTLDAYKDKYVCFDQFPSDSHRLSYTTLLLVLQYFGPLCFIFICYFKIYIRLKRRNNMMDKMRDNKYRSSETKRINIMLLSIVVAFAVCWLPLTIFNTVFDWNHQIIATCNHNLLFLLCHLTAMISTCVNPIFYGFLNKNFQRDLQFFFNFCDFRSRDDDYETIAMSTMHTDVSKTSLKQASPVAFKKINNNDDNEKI

[7] = molecular target: human 5-HT7 receptor (Homo sapiens, UniProt P34969); assay: Binding to human 5-HT7 receptor; settings: cloned human receptor
Chain of human 5-HT7 receptor (P34969 1-445 isoform P34969-2): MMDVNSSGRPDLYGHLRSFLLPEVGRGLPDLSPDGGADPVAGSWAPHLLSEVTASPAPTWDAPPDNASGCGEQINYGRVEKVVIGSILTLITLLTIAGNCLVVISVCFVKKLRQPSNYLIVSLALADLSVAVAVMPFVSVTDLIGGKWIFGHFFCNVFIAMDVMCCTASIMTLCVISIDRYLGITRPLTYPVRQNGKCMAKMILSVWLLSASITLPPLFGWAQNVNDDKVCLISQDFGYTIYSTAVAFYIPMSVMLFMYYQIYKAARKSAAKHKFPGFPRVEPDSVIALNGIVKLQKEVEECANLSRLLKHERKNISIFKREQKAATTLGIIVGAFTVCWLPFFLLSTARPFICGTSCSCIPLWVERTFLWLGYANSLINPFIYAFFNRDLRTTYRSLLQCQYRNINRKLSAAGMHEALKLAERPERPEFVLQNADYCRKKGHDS

[8] = molecular target: T5, human α2A receptor (Homo sapiens, UniProt P08913); assay: Binding to cloned human α2A adrenergic receptor, [3H]rauwolscine
T5 sequence (P08913 1-465): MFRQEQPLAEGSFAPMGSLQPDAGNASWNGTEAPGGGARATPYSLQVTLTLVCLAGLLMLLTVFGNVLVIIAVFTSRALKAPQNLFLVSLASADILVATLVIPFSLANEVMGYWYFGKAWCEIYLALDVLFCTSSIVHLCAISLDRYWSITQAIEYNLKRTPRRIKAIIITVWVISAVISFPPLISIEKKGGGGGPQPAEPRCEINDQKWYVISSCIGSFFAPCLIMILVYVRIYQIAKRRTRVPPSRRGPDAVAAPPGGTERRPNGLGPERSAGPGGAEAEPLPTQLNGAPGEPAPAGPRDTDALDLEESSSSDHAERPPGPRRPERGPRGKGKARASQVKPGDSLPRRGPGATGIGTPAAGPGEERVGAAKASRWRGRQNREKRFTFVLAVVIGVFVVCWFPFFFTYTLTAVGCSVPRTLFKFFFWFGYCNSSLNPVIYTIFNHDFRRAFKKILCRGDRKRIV

[9] = molecular target: human 5HT1Dα receptor (Homo sapiens, UniProt P28221); assay: Binding to human 5HT1Dα receptor, [3H]serotonin; settings: cloned human receptor
Chain of human 5HT1Dα receptor (P28221 whole entry): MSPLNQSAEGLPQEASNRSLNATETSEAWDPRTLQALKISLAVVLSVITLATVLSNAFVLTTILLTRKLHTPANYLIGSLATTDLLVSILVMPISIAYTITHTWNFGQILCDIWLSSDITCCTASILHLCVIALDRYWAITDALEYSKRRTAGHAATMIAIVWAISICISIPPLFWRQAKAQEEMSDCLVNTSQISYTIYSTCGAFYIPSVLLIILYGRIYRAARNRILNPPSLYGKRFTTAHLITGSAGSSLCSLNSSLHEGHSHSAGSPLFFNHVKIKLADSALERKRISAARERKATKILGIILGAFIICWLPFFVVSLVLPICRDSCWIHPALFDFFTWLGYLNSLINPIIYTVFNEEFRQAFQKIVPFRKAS

Cl.O=S(=O)(NC[C@H]1CC[C@H](CNCC2CCc3ccccc3C2)CC1)c1cccc2ccccc12 (stereo partly drawn) [Compound 19]
Receptor (pKi) α1d [1]: 6.90
Receptor (pKi) α1a [2]: 7.47
Receptor (pKi) α1b [3]: 7.35
Two-hour food intake of food-deprived rats, Mean (%) [4]: 36%
Ki [5]: 11700 nM
Ki [6]: 3550 nM
Receptor (pKi) 5HT7 [7]: 6.42
Receptor (pKi) α2a [8]: 6.74
Receptor (pKi) 5HT1Dα [9]: 6.04

Cl.O=[N+]([O-])c1ccccc1S(=O)(=O)NC[C@H]1CC[C@H](CNCC2CCc3ccccc3C2)CC1 (stereo partly drawn) [Compound 20]
Receptor (pKi) α1d [1]: 7.01
Receptor (pKi) α1a [2]: 7.72
Receptor (pKi) α1b [3]: 7.22
Two-hour food intake of food-deprived rats, Mean (%) [4]: 35%
Ki [5]: 20400 nM
Ki [6]: 16000 nM
Receptor (pKi) 5HT7 [7]: 6.37
Receptor (pKi) α2a [8]: 7.31
Receptor (pKi) 5HT1Dα [9]: 5.94

Cl.Cl.Nc1ccccc1S(=O)(=O)NCC1CCC(CNCC2CCc3ccccc3C2)CC1 (stereo not drawn) [Compound 22]
Receptor (pKi) α1d [1]: 6.80
Receptor (pKi) α1a [2]: 7.34
Receptor (pKi) α1b [3]: 6.98
Two-hour food intake of food-deprived rats, Mean (%) [4]: 55%
Ki [5]: 27500 nM
Ki [6]: 17200 nM
Receptor (pKi) 5HT7 [7]: 6.39
Receptor (pKi) α2a [8]: 7.05
Receptor (pKi) 5HT1Dα [9]: 5.98
